In general, IC50 refers to the concentration needed to halve the response being measured. High values mean lower potency, low ones higher potency. Broadly, the logD is lipophilicity at a set pH, counting ionised and neutral species. Read a low logD as a more hydrophilic compound.

Molecules are shown by their SMILES. Values after ≈ are worked out from the molar mass of the structure shown.

The target in data set [1] is T1, Carnitine O-palmitoyltransferase 1, muscle isoform (Homo sapiens, UniProt Q92523).
T1 sequence (Q92523 whole entry): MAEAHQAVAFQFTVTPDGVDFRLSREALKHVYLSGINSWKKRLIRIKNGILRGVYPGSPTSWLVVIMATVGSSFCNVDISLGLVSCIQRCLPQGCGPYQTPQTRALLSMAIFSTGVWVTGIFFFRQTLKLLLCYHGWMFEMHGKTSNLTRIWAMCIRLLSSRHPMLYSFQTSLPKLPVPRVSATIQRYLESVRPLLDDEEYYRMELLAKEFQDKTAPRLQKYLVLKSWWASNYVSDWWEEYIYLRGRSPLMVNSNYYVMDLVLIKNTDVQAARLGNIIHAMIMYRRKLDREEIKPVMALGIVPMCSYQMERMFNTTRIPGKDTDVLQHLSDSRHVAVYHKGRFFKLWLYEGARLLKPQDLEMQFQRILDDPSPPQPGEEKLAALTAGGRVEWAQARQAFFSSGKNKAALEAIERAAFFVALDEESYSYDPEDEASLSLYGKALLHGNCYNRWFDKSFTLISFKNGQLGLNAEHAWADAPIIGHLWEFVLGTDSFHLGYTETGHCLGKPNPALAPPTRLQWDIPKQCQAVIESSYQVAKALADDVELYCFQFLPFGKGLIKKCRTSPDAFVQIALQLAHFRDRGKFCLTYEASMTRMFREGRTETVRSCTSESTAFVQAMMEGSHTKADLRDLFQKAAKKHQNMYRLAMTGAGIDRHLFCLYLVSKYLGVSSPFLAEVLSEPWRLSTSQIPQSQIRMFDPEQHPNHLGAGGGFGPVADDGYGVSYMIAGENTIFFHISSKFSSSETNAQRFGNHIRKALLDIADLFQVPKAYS
Description: SUPPLEMENTARY: Inhibition of Carnitine palmitoyltransferase 1, muscle isoform. Details: species or system Muscle tissue.

Data set [2] is described as follows: SUPPLEMENTARY: Lyophilisation Solubility Assay (LYSA). It counts as physicochemical. As to conditions: read-out: Kinetic_solubility.
The nature of data set [3]: SUPPLEMENTARY: PAMPA permeability assay. It counts as physicochemical. The settings on record: read-out: Permeability. On the technique in general: In PAMPA a lipid-coated filter parts donor from acceptor wells.
Data set [4] has as its target T2, Carnitine O-palmitoyltransferase 2, mitochondrial (Rattus norvegicus, UniProt P18886).
T2 sequence (P18886 whole entry): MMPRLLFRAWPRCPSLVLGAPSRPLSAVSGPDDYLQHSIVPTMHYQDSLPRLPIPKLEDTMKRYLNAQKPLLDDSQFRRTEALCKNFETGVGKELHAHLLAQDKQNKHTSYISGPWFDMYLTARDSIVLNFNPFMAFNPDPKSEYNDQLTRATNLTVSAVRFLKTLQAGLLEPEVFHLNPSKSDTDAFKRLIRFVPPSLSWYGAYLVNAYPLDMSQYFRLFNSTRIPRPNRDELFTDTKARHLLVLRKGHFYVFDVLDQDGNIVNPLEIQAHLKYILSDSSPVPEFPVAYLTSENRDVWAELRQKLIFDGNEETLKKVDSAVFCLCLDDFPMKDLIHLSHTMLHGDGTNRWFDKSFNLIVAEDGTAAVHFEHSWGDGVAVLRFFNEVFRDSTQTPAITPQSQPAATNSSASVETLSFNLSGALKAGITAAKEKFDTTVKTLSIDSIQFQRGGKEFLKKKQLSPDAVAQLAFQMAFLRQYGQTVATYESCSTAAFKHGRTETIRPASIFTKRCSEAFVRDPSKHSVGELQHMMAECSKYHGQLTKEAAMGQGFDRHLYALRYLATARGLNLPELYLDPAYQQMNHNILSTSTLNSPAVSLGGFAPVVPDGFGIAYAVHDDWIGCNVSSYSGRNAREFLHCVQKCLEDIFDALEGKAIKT
Description: (§1) SUPPLEMENTARY: Inhibition of Carnitine palmitoyltransferase 2.

Data set [5] concerns the target T3, Carnitine O-palmitoyltransferase 2, mitochondrial (Homo sapiens, UniProt P23786).
T3 sequence (P23786 whole entry): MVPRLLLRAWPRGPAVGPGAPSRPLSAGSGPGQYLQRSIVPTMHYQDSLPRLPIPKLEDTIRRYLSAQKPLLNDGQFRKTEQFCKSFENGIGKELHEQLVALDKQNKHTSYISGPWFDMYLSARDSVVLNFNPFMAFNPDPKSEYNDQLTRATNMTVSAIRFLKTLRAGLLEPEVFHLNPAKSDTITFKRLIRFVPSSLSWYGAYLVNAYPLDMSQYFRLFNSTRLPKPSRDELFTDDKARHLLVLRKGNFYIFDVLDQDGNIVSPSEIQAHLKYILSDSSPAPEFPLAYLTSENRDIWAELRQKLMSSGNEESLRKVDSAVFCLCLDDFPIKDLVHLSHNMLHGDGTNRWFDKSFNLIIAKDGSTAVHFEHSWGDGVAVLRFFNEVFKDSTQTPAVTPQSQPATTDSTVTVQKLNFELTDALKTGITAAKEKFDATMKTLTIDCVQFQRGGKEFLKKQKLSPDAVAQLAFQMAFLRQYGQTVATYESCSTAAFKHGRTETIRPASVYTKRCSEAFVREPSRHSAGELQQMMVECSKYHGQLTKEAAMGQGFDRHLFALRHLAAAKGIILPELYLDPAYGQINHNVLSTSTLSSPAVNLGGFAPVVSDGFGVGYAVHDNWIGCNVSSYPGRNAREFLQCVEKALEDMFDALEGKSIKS
The description is as §1.

A short description of data set [6]: SUPPLEMENTARY: Lipophilicity (log D) Determination by high-throughput shake-flask. It counts as physicochemical. The settings on record: octanol/water.
The target in data set [7] is T4, Carnitine O-palmitoyltransferase 1, liver isoform (Homo sapiens, UniProt P50416).
T4 sequence (P50416 whole entry): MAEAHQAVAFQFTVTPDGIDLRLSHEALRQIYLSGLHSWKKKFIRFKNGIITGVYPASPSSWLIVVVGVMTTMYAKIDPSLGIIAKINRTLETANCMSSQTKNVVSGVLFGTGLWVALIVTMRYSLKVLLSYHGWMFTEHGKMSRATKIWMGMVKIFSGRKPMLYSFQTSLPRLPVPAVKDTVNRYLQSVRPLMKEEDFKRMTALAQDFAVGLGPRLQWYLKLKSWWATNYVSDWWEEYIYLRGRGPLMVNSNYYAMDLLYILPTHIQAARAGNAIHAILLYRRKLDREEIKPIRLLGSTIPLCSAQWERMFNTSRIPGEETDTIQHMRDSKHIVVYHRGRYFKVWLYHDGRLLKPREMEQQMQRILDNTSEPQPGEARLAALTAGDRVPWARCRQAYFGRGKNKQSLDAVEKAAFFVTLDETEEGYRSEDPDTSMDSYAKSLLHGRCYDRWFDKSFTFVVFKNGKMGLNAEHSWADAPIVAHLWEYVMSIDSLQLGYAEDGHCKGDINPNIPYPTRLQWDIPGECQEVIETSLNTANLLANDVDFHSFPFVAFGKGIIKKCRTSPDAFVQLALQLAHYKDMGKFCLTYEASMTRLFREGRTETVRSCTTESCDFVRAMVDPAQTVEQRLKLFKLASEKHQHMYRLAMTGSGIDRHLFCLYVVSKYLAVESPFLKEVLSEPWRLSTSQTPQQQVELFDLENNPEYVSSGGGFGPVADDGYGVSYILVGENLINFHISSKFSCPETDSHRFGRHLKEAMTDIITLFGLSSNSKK
The data set is described as follows: (§2) SUPPLEMENTARY: Inhibition of Carnitine palmitoyltransferase 1, liver isoform.

For data set [8], the target named is T5, Carnitine O-palmitoyltransferase 1, liver isoform (Rattus norvegicus, UniProt P32198).
T5 sequence (P32198 whole entry): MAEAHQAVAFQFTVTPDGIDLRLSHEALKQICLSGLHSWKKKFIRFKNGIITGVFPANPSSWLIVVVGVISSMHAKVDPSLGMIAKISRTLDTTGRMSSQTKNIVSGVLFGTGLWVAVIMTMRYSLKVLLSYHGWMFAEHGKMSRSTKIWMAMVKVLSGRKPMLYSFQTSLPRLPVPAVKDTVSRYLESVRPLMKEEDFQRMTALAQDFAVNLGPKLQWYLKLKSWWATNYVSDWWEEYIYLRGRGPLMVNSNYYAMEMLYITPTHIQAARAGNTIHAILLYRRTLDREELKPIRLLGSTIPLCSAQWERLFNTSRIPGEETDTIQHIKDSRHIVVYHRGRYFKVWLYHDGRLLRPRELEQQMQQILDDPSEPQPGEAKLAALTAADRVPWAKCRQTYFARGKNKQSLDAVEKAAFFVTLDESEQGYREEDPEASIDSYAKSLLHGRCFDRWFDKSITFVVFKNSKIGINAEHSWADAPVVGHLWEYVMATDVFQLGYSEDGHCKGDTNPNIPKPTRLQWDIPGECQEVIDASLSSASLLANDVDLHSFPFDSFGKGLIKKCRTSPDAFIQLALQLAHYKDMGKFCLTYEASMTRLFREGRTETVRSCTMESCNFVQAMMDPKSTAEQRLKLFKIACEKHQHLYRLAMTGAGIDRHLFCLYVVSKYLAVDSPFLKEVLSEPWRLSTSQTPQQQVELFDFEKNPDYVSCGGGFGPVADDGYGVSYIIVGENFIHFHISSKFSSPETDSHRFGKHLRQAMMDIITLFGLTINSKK
The data set is described as §2.

Consider `O=C(COc1ccccc1)N1CCCC[C@@H]1c1nnn(-c2ccc3[nH]ccc3c2)n1`, for which the IC50 in data set [1] was more than 100 µM; in data set [4], more than 100 µM; in data set [5] it was 47.3 µM; in data set [7], 0.13 µM; in data set [8] it was 0.162 µM. In addition, in data set [2], the solubility kinetic was less than 1 µg/mL. In addition, the Papp in data set [3] is 2.27 ×10⁻⁶ cm/s. Moreover, the logD in data set [6] came to 3.88.

On to `CC(=O)Nc1ccc(-n2nnc([C@H]3CCCCN3C(=O)COc3ccccc3)n2)cc1`, for which the IC50 is more than 100 µM in data set [1]; 78.3 µM in data set [4]; 49.7 µM in data set [5]; 0.108 µM in data set [7]; 0.475 µM in data set [8]. Also, the solubility kinetic in data set [2] was determined as 50 µg/mL (≈ 119 µM). Also, the Papp in data set [3] was 2.71 ×10⁻⁶ cm/s. The molecule further returned a pH-dependent lipophilicity (logD) in data set [6] of 3.14.

With `NC(=O)c1ccc(C#C[C@H]2CCCCN2C(=O)COc2ccccc2)cc1`, the IC50 in data set [1] was 9.88 µM; in data set [4], more than 100 µM; in data set [5], 42.1 µM; in data set [7], 0.0758 µM; in data set [8], 0.169 µM. For the same molecule, the solubility kinetic in data set [2] was 18 µg/mL (≈ 49.7 µM). Further, the Papp in data set [3] is 2.96 ×10⁻⁶ cm/s. Also, the logD in data set [6] was 2.85.

Turning to `COc1ccc(Cl)cc1Cc1cn(C)c2ccc(C(=O)Nc3nc(CC(=O)O)cs3)cc12`, the IC50 was 2.41 µM in data set [1]; more than 100 µM in data set [4]; more than 100 µM in data set [5]; 0.0406 µM in data set [7]; 0.0548 µM in data set [8]. Besides, in data set [2], the solubility kinetic was found to be 19 µg/mL (≈ 40.4 µM). In addition, the Papp in data set [3] was determined as 0.51 ×10⁻⁶ cm/s. The molecule further showed a logD in data set [6] of 2.39.

Turning to `COc1ccc(Cl)cc1Cc1cn(C)c2ccc(C(=O)Nc3ccc(CC(=O)O)cc3)cc12`, the half-inhibitory concentration (IC50) was 2.47 µM in data set [1]; more than 100 µM in data set [4]; more than 100 µM in data set [5]; 0.13 µM in data set [7]; 0.119 µM in data set [8]. Further, the solubility kinetic in data set [2] is 44 µg/mL (≈ 95 µM). In addition, the Papp in data set [3] was found to be 0.86 ×10⁻⁶ cm/s. In data set [6], this molecule registered a logD of 2.7.

Turning to `O=C(COc1ccccc1)N1CCCC[C@@H]1c1noc(-c2cccc(-n3cn[nH]c3=O)c2)n1`, the IC50 is more than 100 µM in data set [1]; more than 100 µM in data set [4]; 12 µM in data set [5]; 0.0591 µM in data set [7]; 0.334 µM in data set [8]. Further, the solubility kinetic in data set [2] worked out at 48 µg/mL (≈ 108 µM). Besides, the Papp in data set [3] was 3.47 ×10⁻⁶ cm/s. For the same molecule, the logD in data set [6] was determined as 2.35.

Take `O=C1CN(c2cccc(-c3nc([C@H]4CCCCN4C(=O)COc4ccccc4)no3)c2)C(=O)N1`: the IC50 was more than 100 µM in data set [1]; 58.7 µM in data set [4]; 10.3 µM in data set [5]; 0.0651 µM in data set [7]; 0.102 µM in data set [8]. In data set [2], the solubility kinetic is 127 µg/mL (≈ 275 µM). Moreover, the Papp in data set [3] came out at 3.43 ×10⁻⁶ cm/s. Besides, the logD in data set [6] came out at 2.62.

For `O=C(COc1ccccc1)N1CCCC[C@@H]1c1noc(-c2cccc(N3CCCS3(=O)=O)c2)n1`, the concentration for half-maximal inhibition (IC50) in data set [1] was more than 100 µM; in data set [4], more than 100 µM; in data set [5], more than 100 µM; in data set [7], 0.067 µM; in data set [8], 0.162 µM. In addition, the solubility kinetic in data set [2] was less than 1 µg/mL. Further, the Papp in data set [3] turned out to be 1 ×10⁻⁶ cm/s. For the same molecule, the logD in data set [6] stood at 2.89.

As to `O=C1CCCN1c1cccc(-c2nc([C@H]3CCCCN3C(=O)COc3ccccc3)no2)c1`, the IC50 in data set [1] is more than 100 µM; in data set [4], more than 100 µM; in data set [5], 38.4 µM; in data set [7] it was 0.142 µM; in data set [8], 0.165 µM. In addition, the solubility kinetic in data set [2] is 9 µg/mL (≈ 20.2 µM). The Papp in data set [3] was 2.33 ×10⁻⁶ cm/s. This molecule showed a pH-dependent lipophilicity (logD) in data set [6] of 3.07.

Regarding `COc1ccc(Cl)cc1S(=O)(=O)N1CCOc2c(C)cc(C(=O)Nc3ccc(CC(=O)O)cc3)cc21`, the IC50 in data set [1] was 3.65 µM; in data set [4], more than 100 µM; in data set [5], more than 100 µM; in data set [7] it was 0.272 µM; in data set [8], 0.206 µM. Also, the solubility kinetic in data set [2] is 502 µg/mL (≈ 946 µM). Also, the Papp in data set [3] worked out at 2.08 ×10⁻⁶ cm/s. In data set [6], this molecule had a logD of 0.68.
